In one assay the test system is L1210 cells. The assay can be described thus: cytotoxic activity on murine leukemia cells of the L1210 type (inhibition of cell growth). It is filed as cell-based. Particulars: in vitro, only ID50 lower than 2 μM considered significant, read-out: ID50 (dose inhibiting 50% of cell growth). The method, then: The cytotoxic activity was determined on murine leukemia cells of the L1210 type according to a method already described (by C. Paoletti, S. Cros eta al., Chem. Bio. Interact, 25, 45 […]. The effect on cell growth is expressed in terms of the dose inhibiting 50% of cell growth (ID50). Only the values of ID50 lower than 2 μM can be considered as being significant from the biological point of view.

In assay [1] the test system is supercoiled form (form I) of the DNA of the bacteriophage OX 174. In words: nuclease activity: cleavage of supercoiled DNA observed by electrophoresis on agarose gel. Type of assay: biochemical. Particulars: for Form I / Form II / Form III: 2 min with oxidant. The method, then:
In fact, only 13% of form I remains at the end of 2 min in the presence of 250 nM of the metalloporphyrin and 5 μM of potassium hydrogen persulfate, KHSO5. The cleavages are single-strandcleavages since the form II (circular duplex DNA with one cleavage) accumulates before being converted to form III (linear duplex DNA). The experimental conditions and the details of the analytical method are given in the reference Fouquet et al. (cf. page 1).
1 μM of metalloporphyrin
pre-incubation time (DNA +
a) 20 min., b) 1 min. time of incubation

Another assay concerns DNA. Particulars: in the presence of ferric ions, molecular oxygen and reducers; cited from earlier work.
Where [2] appears, read: 250 nM metalloporphyrin; 5 μM KHSO5; pre-incubation a) 20 min.
Where [3] appears, read: 250 nM metalloporphyrin; 5 μM KHSO5; pre-incubation b) 1 min.
[4] abbreviates: 1 μM metalloporphyrin; 5 μM KHSO5; pre-incubation a) 20 min.

“Also recorded” adds a separate entry of the source. Where two headings read alike, the source gives them in different places.

The source of these data is patent US5236914A, “Derivatives of metalloporphyrins and application thereof for therapeutic purposes and in preparing hybrid molecules” (Centre National de la Recherche Scientifique (CNRS), priority 1988, dated 1993).

Turning to `CC(=O)[O-].CC(=O)[O-].CC(=O)[O-].CC(=O)[O-].CC(=O)[O-].C[n+]1ccc(-c2c3nc(c(-c4cc[n+](C)cc4)c4ccc([n-]4)c(-c4cc[n+](C)cc4)c4nc(c(-c5ccc([N+](C)(C)C)cc5)c5ccc2[n-]5)C=C4)C=C3)cc1.[Mn+3]` [1 h) (Mn), Manganese (III) 5-(4-trimethylaminophenyl)-10, 15, 20-tris (N-methyl-4 pyridyl)-porphyrin pentaacetate], the IC50 with L1210 cells is 540 nM. For the same molecule, in assay [1] (setting [2]), the “Form I” value turned out to be 13%, the “Form II” value was found to be 78% and the “Form III” value was 9%. Also, in assay [1] (setting [3]), the “Form I” value came out at 63% and the “Form II” value is given as 37%. The “form I remaining at the end of 2 min” value in assay [1] (250 nM metalloporphyrin, 5 μM potassium hydrogen persulfate KHSO5) stood at 13%. In assay [1] (setting [4]), the “Form II” value is listed as 59% and the “Form III” value was 41%. The “efficacy of cleavage / nuclease activity in words” value in assay [1] (DNA in vitro, listed as 1h) is “very marked; also recorded: single-strandcleavages”.

For “Manganese (III) 5-(4-hydroxyphenyl)-10, 15, 20-tris (N-methyl-4-pyridyl)-porphyrin tetraacetate [2 n) (Mn)]”, in the assay on L1210 cells, the IC50 is 680 nM.

With bleomycin, in the assay with DNA, the “nuclease activity in words” value is reported as “high nuclease activity”.

`COc1ccc2[nH]c3c(C)c4cc[n+](CCCCC(=O)O)cc4c(C)c3c2c1` [5 b), N^2-(4-carboxybutyl)-9-methoxy-ellipticinium chloride]: the IC50 in the assay with L1210 cells (Mus musculus) was > 23000 nM.
